From patent US12479847B2 (DANA-FARBER CANCER INSTITUTE, INC., priority 2019, dated 2025)

Experiments:
Test in all cases: KINOMEscan (ScanMAX) kinase profiling
Type in all cases: binding
[1] = molecular target: T1, panel of 468 kinases (Homo sapiens, UniProt O00750); details: PIK3C2B; 1 μM; read-out: % control
T1 construct: purchased KINOMEscan (ScanMAX) service

[2] = molecular target: T2, panel of 468 kinases (Homo sapiens, UniProt P52333); details: JAK3(JH1domain-catalytic); 1 μM; read-out: % control
T2 construct: purchased KINOMEscan (ScanMAX) service
T2 sequence (P52333 1-1124): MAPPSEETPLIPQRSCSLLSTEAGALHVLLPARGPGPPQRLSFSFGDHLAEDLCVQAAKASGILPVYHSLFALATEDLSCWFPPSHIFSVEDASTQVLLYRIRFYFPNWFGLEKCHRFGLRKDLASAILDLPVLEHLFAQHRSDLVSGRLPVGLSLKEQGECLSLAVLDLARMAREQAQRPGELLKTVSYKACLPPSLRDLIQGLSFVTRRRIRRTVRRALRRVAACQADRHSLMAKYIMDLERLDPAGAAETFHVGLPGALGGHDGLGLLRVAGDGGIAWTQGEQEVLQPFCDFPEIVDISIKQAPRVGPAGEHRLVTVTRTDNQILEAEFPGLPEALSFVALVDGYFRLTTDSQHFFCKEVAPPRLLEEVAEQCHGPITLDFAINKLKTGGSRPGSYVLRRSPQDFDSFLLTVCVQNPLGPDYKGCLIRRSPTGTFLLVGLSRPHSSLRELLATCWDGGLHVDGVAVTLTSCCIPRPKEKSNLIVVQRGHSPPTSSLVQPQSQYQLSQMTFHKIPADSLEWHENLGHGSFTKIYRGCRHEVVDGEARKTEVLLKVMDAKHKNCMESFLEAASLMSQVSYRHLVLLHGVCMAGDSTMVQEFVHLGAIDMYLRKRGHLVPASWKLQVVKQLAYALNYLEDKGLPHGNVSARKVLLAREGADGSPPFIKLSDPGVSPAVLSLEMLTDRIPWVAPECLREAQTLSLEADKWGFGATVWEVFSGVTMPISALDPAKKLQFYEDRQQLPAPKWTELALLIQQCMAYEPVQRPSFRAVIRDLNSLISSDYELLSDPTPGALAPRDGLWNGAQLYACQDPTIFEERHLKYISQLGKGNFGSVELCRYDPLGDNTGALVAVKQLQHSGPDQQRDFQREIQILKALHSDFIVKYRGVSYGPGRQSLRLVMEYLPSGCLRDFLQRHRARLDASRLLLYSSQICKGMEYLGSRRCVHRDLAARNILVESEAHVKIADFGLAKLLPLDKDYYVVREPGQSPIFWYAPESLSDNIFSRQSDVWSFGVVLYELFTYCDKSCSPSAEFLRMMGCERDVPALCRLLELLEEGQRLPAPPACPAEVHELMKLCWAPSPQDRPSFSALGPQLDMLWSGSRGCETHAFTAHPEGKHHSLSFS

[3] = molecular target: T3, panel of 468 kinases (Homo sapiens, UniProt Q8WTQ7); details: GRK7; 1 μM; read-out: % control
T3 construct: purchased KINOMEscan (ScanMAX) service
T3 sequence (Q8WTQ7 1-553): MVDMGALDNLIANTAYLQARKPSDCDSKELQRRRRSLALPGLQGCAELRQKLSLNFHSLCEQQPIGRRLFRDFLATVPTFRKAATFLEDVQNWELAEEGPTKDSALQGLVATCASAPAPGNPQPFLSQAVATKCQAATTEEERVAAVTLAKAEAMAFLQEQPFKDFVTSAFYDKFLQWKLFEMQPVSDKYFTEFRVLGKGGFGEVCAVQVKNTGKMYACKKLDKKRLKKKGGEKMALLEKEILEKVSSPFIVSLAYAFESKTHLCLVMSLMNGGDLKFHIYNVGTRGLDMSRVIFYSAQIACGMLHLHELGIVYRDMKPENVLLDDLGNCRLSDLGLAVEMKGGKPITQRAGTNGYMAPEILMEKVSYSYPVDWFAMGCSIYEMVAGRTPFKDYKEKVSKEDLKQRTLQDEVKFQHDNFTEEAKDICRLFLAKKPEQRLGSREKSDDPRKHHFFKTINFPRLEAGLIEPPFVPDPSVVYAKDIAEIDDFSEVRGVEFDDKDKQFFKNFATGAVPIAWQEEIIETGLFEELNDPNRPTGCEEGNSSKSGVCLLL

[4] = molecular target: T4, panel of 468 kinases (Homo sapiens, UniProt Q9UPZ9); details: ICK; 1 μM; read-out: % control
T4 construct: purchased KINOMEscan (ScanMAX) service
T4 sequence (Q9UPZ9 1-632): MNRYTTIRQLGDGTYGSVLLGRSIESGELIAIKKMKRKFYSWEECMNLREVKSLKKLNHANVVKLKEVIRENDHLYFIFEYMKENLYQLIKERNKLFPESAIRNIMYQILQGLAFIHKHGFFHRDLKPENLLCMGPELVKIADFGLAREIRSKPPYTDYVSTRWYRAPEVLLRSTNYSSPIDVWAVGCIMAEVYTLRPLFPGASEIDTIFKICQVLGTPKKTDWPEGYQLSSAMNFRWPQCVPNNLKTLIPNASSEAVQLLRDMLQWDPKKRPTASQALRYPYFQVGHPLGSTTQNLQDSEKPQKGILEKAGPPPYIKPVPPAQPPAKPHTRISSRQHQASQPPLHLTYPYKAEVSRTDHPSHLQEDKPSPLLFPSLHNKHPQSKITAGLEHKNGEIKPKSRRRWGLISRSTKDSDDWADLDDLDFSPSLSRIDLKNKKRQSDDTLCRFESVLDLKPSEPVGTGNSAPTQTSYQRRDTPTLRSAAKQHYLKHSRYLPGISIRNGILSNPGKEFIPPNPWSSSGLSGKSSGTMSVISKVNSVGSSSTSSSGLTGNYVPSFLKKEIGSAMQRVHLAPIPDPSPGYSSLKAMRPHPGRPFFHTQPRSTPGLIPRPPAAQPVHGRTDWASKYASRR

[5] = molecular target: T5, panel of 468 kinases (Homo sapiens, UniProt Q9Y2I7); details: PIKFYVE; 1 μM; read-out: % control
T5 construct: purchased KINOMEscan (ScanMAX) service
T5 sequence (Q9Y2I7 whole entry): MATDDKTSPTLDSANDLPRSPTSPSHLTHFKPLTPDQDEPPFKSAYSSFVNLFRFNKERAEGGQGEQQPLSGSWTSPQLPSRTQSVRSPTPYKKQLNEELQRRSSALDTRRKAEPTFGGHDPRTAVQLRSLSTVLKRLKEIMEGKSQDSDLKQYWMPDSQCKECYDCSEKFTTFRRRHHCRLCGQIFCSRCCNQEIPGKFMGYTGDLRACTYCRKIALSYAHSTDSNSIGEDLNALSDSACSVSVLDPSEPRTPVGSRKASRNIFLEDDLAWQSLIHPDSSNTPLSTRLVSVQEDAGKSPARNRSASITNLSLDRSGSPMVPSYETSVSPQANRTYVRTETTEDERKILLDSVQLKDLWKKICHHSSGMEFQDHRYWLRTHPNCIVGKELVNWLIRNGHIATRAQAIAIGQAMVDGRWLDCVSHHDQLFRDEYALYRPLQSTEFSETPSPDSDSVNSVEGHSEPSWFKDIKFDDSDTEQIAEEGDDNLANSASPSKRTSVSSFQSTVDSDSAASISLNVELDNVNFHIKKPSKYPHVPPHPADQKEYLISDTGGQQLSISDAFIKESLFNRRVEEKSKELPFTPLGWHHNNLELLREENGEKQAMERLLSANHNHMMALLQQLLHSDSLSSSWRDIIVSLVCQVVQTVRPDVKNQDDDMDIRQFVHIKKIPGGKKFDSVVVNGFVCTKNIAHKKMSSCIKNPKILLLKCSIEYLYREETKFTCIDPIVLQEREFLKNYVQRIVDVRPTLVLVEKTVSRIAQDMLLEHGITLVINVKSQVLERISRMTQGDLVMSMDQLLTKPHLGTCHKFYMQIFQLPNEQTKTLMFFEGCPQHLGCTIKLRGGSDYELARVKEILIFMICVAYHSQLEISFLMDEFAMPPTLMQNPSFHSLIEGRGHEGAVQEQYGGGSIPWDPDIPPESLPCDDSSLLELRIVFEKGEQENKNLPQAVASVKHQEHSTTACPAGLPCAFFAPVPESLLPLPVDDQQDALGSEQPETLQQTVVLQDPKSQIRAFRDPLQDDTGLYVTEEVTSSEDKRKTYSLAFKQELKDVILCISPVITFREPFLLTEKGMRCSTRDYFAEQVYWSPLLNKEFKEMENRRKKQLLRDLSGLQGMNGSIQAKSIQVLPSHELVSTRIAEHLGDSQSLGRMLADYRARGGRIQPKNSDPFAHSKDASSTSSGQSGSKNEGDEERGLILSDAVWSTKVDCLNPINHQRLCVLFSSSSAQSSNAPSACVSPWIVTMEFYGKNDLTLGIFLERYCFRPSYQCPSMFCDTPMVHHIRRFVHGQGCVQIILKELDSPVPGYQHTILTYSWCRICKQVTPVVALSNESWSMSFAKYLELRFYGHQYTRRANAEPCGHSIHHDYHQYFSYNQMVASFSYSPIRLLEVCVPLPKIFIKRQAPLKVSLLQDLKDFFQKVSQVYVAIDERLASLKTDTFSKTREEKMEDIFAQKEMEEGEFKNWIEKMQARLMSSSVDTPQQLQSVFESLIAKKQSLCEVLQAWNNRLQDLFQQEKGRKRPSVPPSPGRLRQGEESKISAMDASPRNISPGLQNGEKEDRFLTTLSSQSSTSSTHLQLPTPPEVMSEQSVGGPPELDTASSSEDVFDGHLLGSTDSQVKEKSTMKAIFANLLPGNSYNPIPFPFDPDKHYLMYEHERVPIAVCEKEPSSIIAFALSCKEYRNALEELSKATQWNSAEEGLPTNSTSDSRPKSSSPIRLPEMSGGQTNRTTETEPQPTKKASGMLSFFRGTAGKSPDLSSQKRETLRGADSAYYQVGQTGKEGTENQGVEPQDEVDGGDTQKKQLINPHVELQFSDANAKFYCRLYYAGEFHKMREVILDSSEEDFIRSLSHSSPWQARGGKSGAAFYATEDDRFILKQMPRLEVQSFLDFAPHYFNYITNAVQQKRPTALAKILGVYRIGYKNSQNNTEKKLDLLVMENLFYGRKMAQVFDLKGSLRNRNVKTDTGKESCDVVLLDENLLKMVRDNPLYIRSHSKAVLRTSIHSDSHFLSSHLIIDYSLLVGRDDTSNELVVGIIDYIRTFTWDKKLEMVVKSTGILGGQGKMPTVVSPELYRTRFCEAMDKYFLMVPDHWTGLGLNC

T1 sequence (O00750 whole entry): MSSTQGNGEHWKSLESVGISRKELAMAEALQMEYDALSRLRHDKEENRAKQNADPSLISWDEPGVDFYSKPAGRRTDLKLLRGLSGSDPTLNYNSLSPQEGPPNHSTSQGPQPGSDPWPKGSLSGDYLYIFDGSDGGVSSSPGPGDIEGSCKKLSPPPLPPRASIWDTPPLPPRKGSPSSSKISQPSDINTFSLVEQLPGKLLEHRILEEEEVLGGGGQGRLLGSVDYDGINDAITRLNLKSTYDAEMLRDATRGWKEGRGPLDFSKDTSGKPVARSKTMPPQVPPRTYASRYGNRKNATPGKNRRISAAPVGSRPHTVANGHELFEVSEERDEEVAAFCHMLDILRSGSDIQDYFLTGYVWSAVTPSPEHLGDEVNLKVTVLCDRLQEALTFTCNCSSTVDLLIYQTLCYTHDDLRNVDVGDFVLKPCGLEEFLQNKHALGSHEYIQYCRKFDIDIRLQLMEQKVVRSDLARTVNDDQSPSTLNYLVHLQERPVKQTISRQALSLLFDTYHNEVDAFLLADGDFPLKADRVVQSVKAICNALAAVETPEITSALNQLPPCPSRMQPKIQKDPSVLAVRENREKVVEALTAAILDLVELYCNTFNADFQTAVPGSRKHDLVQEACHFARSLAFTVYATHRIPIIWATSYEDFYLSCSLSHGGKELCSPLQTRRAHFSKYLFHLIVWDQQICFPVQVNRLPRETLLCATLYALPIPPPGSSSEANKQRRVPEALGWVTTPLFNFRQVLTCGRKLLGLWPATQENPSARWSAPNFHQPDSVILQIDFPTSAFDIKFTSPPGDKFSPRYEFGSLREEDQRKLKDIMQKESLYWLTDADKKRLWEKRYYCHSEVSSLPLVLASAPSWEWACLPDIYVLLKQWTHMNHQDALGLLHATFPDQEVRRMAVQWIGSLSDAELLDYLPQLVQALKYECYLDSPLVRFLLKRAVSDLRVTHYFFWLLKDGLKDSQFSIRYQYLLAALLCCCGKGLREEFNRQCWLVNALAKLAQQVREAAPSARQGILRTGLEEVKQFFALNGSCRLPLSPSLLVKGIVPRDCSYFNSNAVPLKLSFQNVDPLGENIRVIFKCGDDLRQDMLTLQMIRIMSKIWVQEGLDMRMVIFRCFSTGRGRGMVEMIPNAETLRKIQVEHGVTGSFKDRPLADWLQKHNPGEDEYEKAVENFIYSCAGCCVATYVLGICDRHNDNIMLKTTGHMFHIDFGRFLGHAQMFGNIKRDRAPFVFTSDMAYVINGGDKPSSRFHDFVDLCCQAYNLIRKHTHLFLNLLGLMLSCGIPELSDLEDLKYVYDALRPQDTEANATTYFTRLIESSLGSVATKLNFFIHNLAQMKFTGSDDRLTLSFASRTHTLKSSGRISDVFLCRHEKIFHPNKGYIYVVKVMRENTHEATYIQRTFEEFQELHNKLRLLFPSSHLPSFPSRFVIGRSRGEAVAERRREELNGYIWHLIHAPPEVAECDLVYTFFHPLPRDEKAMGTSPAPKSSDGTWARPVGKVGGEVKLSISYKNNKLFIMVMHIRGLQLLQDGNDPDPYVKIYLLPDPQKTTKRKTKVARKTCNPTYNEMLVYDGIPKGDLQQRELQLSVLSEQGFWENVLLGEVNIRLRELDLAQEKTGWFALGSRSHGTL

Compound | remaining binding at 1 µM [1] [%] | remaining binding at 1 µM [2] [%] | remaining binding at 1 µM [3] [%] | remaining binding at 1 µM [4] [%] | remaining binding at 1 µM [5] [%]
CNc1nc(Nc2ccc(S(=O)(=O)N3CCC(N4CCOCC4)CC3)cc2OC)nc2[nH]cc(Cl)c12 [Compound 12, 5-chloro-N2-(2-methoxy-4-((4-morpholinopiperidin-1-yl)sulfonyl)phenyl)-N4-methyl-7H-pyrrolo[2,3-d]pyrimidine-2,4-diamine] | 100 | 77 | 100 | 77 | 64
CNc1nc(Nc2ccc(C(=O)N3CCC(N4CCOCC4)CC3)c3c2OCO3)nc2[nH]cc(Cl)c12 [Compound 75, (7-((5-chloro-4-(methylamino)-7H-pyrrolo[2,3-d]pyrimidin-2-yl)amino)benzo[d][1,3]dioxol-4-yl)(4-morpholinopiperidin-1-yl)methanone] | 100 | 25 | 100 | 89 | 72
CNc1nc(Nc2ccc(P3(=O)CCN(C4CCOCC4)CC3)cc2OC)nc2[nH]cc(Cl)c12 [Compound 77, 4-(4-((5-chloro-4-(methylamino)-7H-pyrrolo[2,3-d]pyrimidin-2-yl)amino)-3-methoxyphenyl)-1-(tetrahydro-2H-pyran-4-yl)-1,4-azaphosphinane 4-oxide] | 96 | 86 | 99 | 85 | 70
